Experimental data reported in publication PMC5999578 (Journal of the American Chemical Society, 2018).

Molecular target: VioC (Streptomyces vinaceus, UniProt Q6WZB0)
Experiment: X-ray crystal structure, […] A
Assay type: binding
Settings: vanadyl (ferryl mimic) in place of Fe, L-hArg

Sequence of VioC (Q6WZB0 whole entry): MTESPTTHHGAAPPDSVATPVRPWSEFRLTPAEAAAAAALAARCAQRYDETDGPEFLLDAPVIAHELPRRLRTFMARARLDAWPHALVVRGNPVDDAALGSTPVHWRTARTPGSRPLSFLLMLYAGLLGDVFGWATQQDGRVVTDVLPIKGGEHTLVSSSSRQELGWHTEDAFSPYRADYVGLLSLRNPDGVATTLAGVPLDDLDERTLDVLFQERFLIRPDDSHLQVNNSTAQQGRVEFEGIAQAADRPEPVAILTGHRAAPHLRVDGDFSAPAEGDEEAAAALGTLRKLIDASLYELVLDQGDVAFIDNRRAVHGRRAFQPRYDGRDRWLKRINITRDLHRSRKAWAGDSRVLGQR

With `O=C(O)CCC(=O)O` [succinate] the “X-ray crystal structure, 1.70 A” value was “crystals of the VioC•VO•succinate•L-hArg complex”.
